Laboratory results: ChEMBL document CHEMBL1129220, “Synthesis and structure-activity relationships of novel 3-Hty-substituted pneumocandins” (Bioorg Med Chem Lett, 1997)
Values after ≈ are worked out from the molar mass of the structure shown.

Columns and labels:
Type in all cases: functional
Candida albicans = assay: In vitro minimum fungicidal concentration against Candida albicans (MY 1055) using a whole cell broth microdilution assay.
Mus musculus [1] = assay: In vivo anti-Candida activity was obtained in the target organ kidney assay (TOKA), a mouse model of disseminated candidiasis; 20% of animals in test group with kidneys were completely sterilized of Candida albicans at the ED99.9 dose
Mus musculus [2] = assay: In vivo anti-Candida activity was obtained in the target organ kidney assay (TOKA), a mouse model of disseminated candidiasis; 0% of animals in test group with kidneys were completely sterilized of Candida albicans at the ED99.9 dose
Mus musculus [3] = assay: In vivo anti-Candida activity was obtained in the target organ kidney assay (TOKA), a mouse model of disseminated candidiasis; 40% of animals in test group with kidneys were completely sterilized of Candida albicans at the ED99.9 dose

Structure (SMILES)	MFC (Candida albicans) [µg/mL]	further results
CCC(C)CC(C)CCCCCCCCC(=O)N[C@@H]1C[C@@H](O)CNC(=O)[C@@H]2[C@@H](O)CCN2C(=O)[C@H]([C@@H](O)CC(N)=O)NC(=O)[C@H]([C@@H](O)Cc2ccc(O)c([N+](=O)[O-])c2)NC(=O)[C@@H]2C[C@@H](O)CN2C(=O)[C@H]([C@@H](C)O)NC1=O (some centres undefined)	2 (≈ 1.85 µM)	–
CCC(C)CC(C)CCCCCCCCC(=O)N[C@@H]1C[C@@H](O)[C@@H](O)NC(=O)[C@@H]2[C@@H](O)CCN2C(=O)[C@H]([C@@H](O)CC(N)=O)NC(=O)[C@H]([C@@H](O)[C@H](O)c2ccc(O)c([N+](=O)[O-])c2)NC(=O)[C@@H]2C[C@@H](O)CN2C(=O)[C@H]([C@@H](C)O)NC1=O (some centres undefined)	8 (≈ 7.21 µM)	–
CCCc1cc(C[C@H](O)[C@@H]2NC(=O)[C@@H]3C[C@@H](O)CN3C(=O)[C@H]([C@@H](C)O)NC(=O)[C@H](NC(=O)CCCCCCCCC(C)CC(C)CC)C[C@@H](O)CNC(=O)[C@@H]3[C@@H](O)CCN3C(=O)[C@H]([C@@H](O)CC(N)=O)NC2=O)ccc1O (some centres undefined)	0.5 (≈ 0.465 µM)	–
CCC(C)CC(C)CCCCCCCCC(=O)N[C@@H]1C[C@@H](O)[C@@H](O)NC(=O)[C@@H]2[C@@H](O)CCN2C(=O)[C@H]([C@@H](O)CC(N)=O)NC(=O)[C@H]([C@@H](O)[C@H](O)c2ccc(O)cc2)NC(=O)[C@@H]2C[C@@H](O)CN2C(=O)[C@H]([C@@H](C)O)NC1=O (some centres undefined)	0.25 (≈ 0.235 µM)	ED99.9 (Mus musculus [1]): 6 mg/kg
CCC(C)CC(C)CCCCCCCCC(=O)N[C@@H]1C[C@@H](O)CNC(=O)[C@@H]2[C@@H](O)CCN2C(=O)[C@H]([C@@H](O)CC(N)=O)NC(=O)[C@H]([C@@H](O)Cc2ccc(O)c(C(=O)OC)c2)NC(=O)[C@@H]2C[C@@H](O)CN2C(=O)[C@H]([C@@H](C)O)NC1=O (some centres undefined)	2 (≈ 1.83 µM)	–
CCC(C)CC(C)CCCCCCCCC(=O)N[C@@H]1C[C@@H](O)[C@@H](O)NC(=O)[C@@H]2[C@@H](O)CCN2C(=O)[C@H]([C@@H](O)CC(N)=O)NC(=O)[C@H]([C@@H](O)[C@H](O)c2ccc(O)c(N)c2)NC(=O)[C@@H]2C[C@@H](O)CN2C(=O)[C@H]([C@@H](C)O)NC1=O (some centres undefined)	2 (≈ 1.85 µM)	–
CCC(C)CC(C)CCCCCCCCC(=O)N[C@@H]1C[C@@H](O)[C@@H](O)NC(=O)[C@@H]2[C@@H](O)CCN2C(=O)[C@H]([C@@H](O)CC(N)=O)NC(=O)[C@H]([C@@H](O)[C@H](O)c2ccc(O)c(I)c2)NC(=O)[C@@H]2C[C@@H](O)CN2C(=O)[C@H]([C@@H](C)O)NC1=O (some centres undefined)	4 (≈ 3.36 µM)	–
CCC(C)CC(C)CCCCCCCCC(=O)N[C@@H]1C[C@@H](O)CNC(=O)[C@@H]2[C@@H](O)CCN2C(=O)[C@H]([C@@H](O)CC(N)=O)NC(=O)[C@H]([C@@H](O)Cc2ccc(O)c(C=O)c2)NC(=O)[C@@H]2C[C@@H](O)CN2C(=O)[C@H]([C@@H](C)O)NC1=O (some centres undefined)	1 (≈ 0.942 µM)	–
C=CCc1cc(C[C@H](O)[C@@H]2NC(=O)[C@@H]3C[C@@H](O)CN3C(=O)[C@H]([C@@H](C)O)NC(=O)[C@H](NC(=O)CCCCCCCCC(C)CC(C)CC)C[C@@H](O)CNC(=O)[C@@H]3[C@@H](O)CCN3C(=O)[C@H]([C@@H](O)CC(N)=O)NC2=O)ccc1O (some centres undefined)	1 (≈ 0.932 µM)	–
CCC(C)CC(C)CCCCCCCCC(=O)N[C@@H]1C[C@@H](O)CNC(=O)[C@@H]2[C@@H](O)CCN2C(=O)[C@H]([C@@H](O)CC(N)=O)NC(=O)[C@H]([C@@H](O)Cc2ccc(O)c(N=[N+]=[N-])c2)NC(=O)[C@@H]2C[C@@H](O)CN2C(=O)[C@H]([C@@H](C)O)NC1=O (some centres undefined)	4 (≈ 3.72 µM)	–
CCC(C)CC(C)CCCCCCCCC(=O)N[C@@H]1C[C@@H](O)CNC(=O)[C@@H]2[C@@H](O)CCN2C(=O)[C@H]([C@@H](O)CC(N)=O)NC(=O)[C@H]([C@@H](O)Cc2ccc3c(c2)CC(O)O3)NC(=O)[C@@H]2C[C@@H](O)CN2C(=O)[C@H]([C@@H](C)O)NC1=O (some centres undefined)	1 (≈ 0.93 µM)	–
CCC(C)CC(C)CCCCCCCCC(=O)N[C@@H]1C[C@@H](O)[C@@H](O)NC(=O)[C@@H]2[C@@H](O)CCN2C(=O)[C@H]([C@@H](O)CC(N)=O)NC(=O)[C@H]([C@@H](O)[C@H](O)c2ccc(O)c(NC(=O)CS)c2)NC(=O)[C@@H]2C[C@@H](O)CN2C(=O)[C@H]([C@@H](C)O)NC1=O (some centres undefined)	2 (≈ 1.73 µM)	–
CCC(C)CC(C)CCCCCCCCC(=O)N[C@@H]1C[C@@H](O)[C@@H](O)NC(=O)[C@@H]2[C@@H](O)CCN2C(=O)[C@H]([C@@H](O)CC(N)=O)NC(=O)[C@H]([C@@H](O)[C@H](O)c2cc(I)c(O)c(I)c2)NC(=O)[C@@H]2C[C@@H](O)CN2C(=O)[C@H]([C@@H](C)O)NC1=O (some centres undefined)	8 (≈ 6.07 µM)	–
CCC(C)CC(C)CCCCCCCCC(=O)N[C@@H]1C[C@@H](O)[C@@H](O)NC(=O)[C@@H]2[C@@H](O)CCN2C(=O)[C@H]([C@@H](O)CC(N)=O)NC(=O)[C@H]([C@@H](O)[C@H](O)c2ccc(O)c(NC(=O)CCN)c2)NC(=O)[C@@H]2C[C@@H](O)CN2C(=O)[C@H]([C@@H](C)O)NC1=O (some centres undefined)	0.25 (≈ 0.217 µM)	ED99.9 (Mus musculus [2]): 0.78 mg/kg
CCC(C)CC(C)CCCCCCCCC(=O)N[C@@H]1C[C@@H](O)CNC(=O)[C@@H]2[C@@H](O)CCN2C(=O)[C@H]([C@@H](O)CC(N)=O)NC(=O)[C@H]([C@@H](O)Cc2ccc(O)c(O)c2)NC(=O)[C@@H]2C[C@@H](O)CN2C(=O)[C@H]([C@@H](C)O)NC1=O (some centres undefined)	0.5 (≈ 0.477 µM)	–
CCC(C)CC(C)CCCCCCCCC(=O)N[C@@H]1C[C@@H](O)[C@@H](O)NC(=O)[C@@H]2[C@@H](O)CCN2C(=O)[C@H]([C@@H](O)CC(N)=O)NC(=O)[C@H]([C@@H](O)[C@H](O)c2ccc(O)c(N=[N+]=[N-])c2)NC(=O)[C@@H]2C[C@@H](O)CN2C(=O)[C@H]([C@@H](C)O)NC1=O (some centres undefined)	0.5 (≈ 0.452 µM)	–
C=Cc1cc(C[C@H](O)[C@@H]2NC(=O)[C@@H]3C[C@@H](O)CN3C(=O)[C@H]([C@@H](C)O)NC(=O)[C@H](NC(=O)CCCCCCCCC(C)CC(C)CC)C[C@@H](O)CNC(=O)[C@@H]3[C@@H](O)CCN3C(=O)[C@H]([C@@H](O)CC(N)=O)NC2=O)ccc1O (some centres undefined)	1 (≈ 0.944 µM)	–
CCC(C)CC(C)CCCCCCCCC(=O)N[C@@H]1C[C@@H](O)[C@@H](O)NC(=O)[C@@H]2[C@@H](O)CCN2C(=O)[C@H]([C@@H](O)CC(N)=O)NC(=O)[C@H]([C@@H](O)[C@H](O)c2ccc(O)c(NC(=O)CCC(=O)O)c2)NC(=O)[C@@H]2C[C@@H](O)CN2C(=O)[C@H]([C@@H](C)O)NC1=O (some centres undefined)	0.25 (≈ 0.212 µM)	ED99.9 (Mus musculus [2]): 6 mg/kg
CCc1cc(C[C@H](O)[C@@H]2NC(=O)[C@@H]3C[C@@H](O)CN3C(=O)[C@H]([C@@H](C)O)NC(=O)[C@H](NC(=O)CCCCCCCCC(C)CC(C)CC)C[C@@H](O)CNC(=O)[C@@H]3[C@@H](O)CCN3C(=O)[C@H]([C@@H](O)CC(N)=O)NC2=O)ccc1O (some centres undefined)	1 (≈ 0.942 µM)	–
CCC(C)CC(C)CCCCCCCCC(=O)N[C@@H]1C[C@@H](O)CNC(=O)[C@@H]2[C@@H](O)CCN2C(=O)[C@H]([C@@H](O)CC(N)=O)NC(=O)[C@H]([C@@H](O)Cc2ccc(O)c(N)c2)NC(=O)[C@@H]2C[C@@H](O)CN2C(=O)[C@H]([C@@H](C)O)NC1=O (some centres undefined)	2 (≈ 1.91 µM)	–
CCC(C)CC(C)CCCCCCCCC(=O)N[C@@H]1C[C@@H](O)[C@@H](O)NC(=O)[C@@H]2[C@@H](O)CCN2C(=O)[C@H]([C@@H](O)CC(N)=O)NC(=O)[C@H]([C@@H](O)[C@H](O)c2ccc(O)c(NC(=O)CN)c2)NC(=O)[C@@H]2C[C@@H](O)CN2C(=O)[C@H]([C@@H](C)O)NC1=O (some centres undefined)	0.25 (≈ 0.22 µM)	ED99.9 (Mus musculus [3]): 0.75 mg/kg
CCC(C)CC(C)CCCCCCCCC(=O)N[C@@H]1C[C@@H](O)CNC(=O)[C@@H]2[C@@H](O)CCN2C(=O)[C@H]([C@@H](O)CC(N)=O)NC(=O)[C@H]([C@@H](O)Cc2ccc(O)c(I)c2)NC(=O)[C@@H]2C[C@@H](O)CN2C(=O)[C@H]([C@@H](C)O)NC1=O (some centres undefined)	0.5 (≈ 0.431 µM)	–
CCC(C)CC(C)CCCCCCCCC(=O)N[C@@H]1C[C@@H](O)CNC(=O)[C@@H]2[C@@H](O)CCN2C(=O)[C@H]([C@@H](O)CC(N)=O)NC(=O)[C@H]([C@@H](O)Cc2ccc(O)cc2)NC(=O)[C@@H]2C[C@@H](O)CN2C(=O)[C@H]([C@@H](C)O)NC1=O (some centres undefined)	0.25 (≈ 0.242 µM)	–
CCC(C)CC(C)CCCCCCCCC(=O)N[C@@H]1C[C@@H](O)[C@@H](O)NC(=O)[C@@H]2[C@@H](O)CCN2C(=O)[C@H]([C@@H](O)CC(N)=O)NC(=O)[C@H]([C@@H](O)[C@H](O)c2ccc(O)c(NC(C)=O)c2)NC(=O)[C@@H]2C[C@@H](O)CN2C(=O)[C@H]([C@@H](C)O)NC1=O (some centres undefined)	1 (≈ 0.891 µM)	–
CCC(C)CC(C)CCCCCCCCC(=O)N[C@@H]1C[C@@H](O)CNC(=O)[C@@H]2[C@@H](O)CCN2C(=O)[C@H]([C@@H](O)CC(N)=O)NC(=O)[C@H]([C@@H](O)Cc2ccc(O)c(CCO)c2)NC(=O)[C@@H]2C[C@@H](O)CN2C(=O)[C@H]([C@@H](C)O)NC1=O (some centres undefined)	0.5 (≈ 0.464 µM)	–
